Each structure is given as a SMILES string. pIC50: −log10 of the molar value.

This assay in a line: Growth inhibition of thymidylate synthase(TS) in L1210 cells.
Consider `CCN(Cc1ccc2ncnc(SC)c2c1)c1ccc(C(=O)NC(CCC(=O)O)C(=O)O)cc1` (stereo not drawn), for which the negative logarithm of the IC50 (pIC50) is 3.93.

`C#CCN(Cc1ccc2nc[nH]c(=S)c2c1)c1ccc(C(=O)NC(CCC(=O)O)C(=O)O)cc1` (stereo not drawn) showed a pIC50 of 6.96.

`CCN(Cc1ccc2nc[nH]c(=S)c2c1)c1ccc(C(=O)NC(CCC(=O)O)C(=O)O)cc1` (stereo not drawn) gave a pIC50 of 6.59.

The values above are taken from BindingDB's records for doi:10.1021/jm00107a015 (Institute of Cancer Research, 1991).
